From patent US20140356383A1, “ADMINISTRATION OF AN ANTI-GCC ANTIBODY-DRUG CONJUGATE AND A DNA DAMAGING AGENT IN THE TREATMENT OF CANCER” (priority 2013, published 2014)

Legend:
PHTX-11c s.c. xenograft = assay: MLN0264 and CPT-11 in PHTX-11c s.c. xenografts (Study CPGC-12-EF01)
Excerpt: The objective of this study was to explore the combination activity in a model having moderate level of GCC antigen density yet resistance to the immunoconjugate alone.
(§6) The endpoints for each treatment group was either a) tumor volume reaches 10% body weight; or b) body weight loss of >20%. The projected tumor volume at the study initiation date was 200 mm^3.
Not greater than one day prior to dosing, all animals were weighed to the nearest gram and grouped. Dosing solutions were vortexed prior to each administration to ensure correct delivery of compound. Animals received approximately 0.1 ml doses administered I.V. using a 1 cc syringe, 25-30 gauge, ½-¾ inch in length.
Tumor volume measurements (0.01 mm) were obtained twice per week using Vernier calipers (0.01 mm). Tumor volume was calculated using the formula:
(§7) Efficacy was evaluated in terms of % tumor growth inhibition (TGI) and tumor growth delay (TGD). TGI was assessed on an arbitrary day (when the maximum tumor volume (MTV of the control treatment group reaches the maximum allowable tumor volume), using the following formula:
(§8) TGD was assessed by calculating T−C, where T=mean time (in days) for treatment group tumors to reach a predetermined size, and where C=mean time (in days) for the control group tumors to reach a predetermined size (e.g., 1,000 mm^3).
(§9) To compare pairs of treatment groups, the following mixed-effects linear regression model was fit to the data using the maximum likelihood method:
(§10) The predicted differences in the log tumor values (Yijk−Yi0k, which can be interpreted as log10 (fold change from day 0)) were taken from the above models to calculate mean AUC values for each treatment group. A dAUC value was then calculated as:
(§11) For synergy analyses, the observed differences in the log tumor values were used to calculate AUC values for each animal. […] The AUC for the control, or vehicle, group was calculated using the predicted values from the pairwise models described above. To address the question of whether the effects of the combination treatments were synergistic, additive, or sub-additive relative to the individual treatments, the following statistics were calculated:
where Ak and Bk are the k^th animal in the individual treatment groups and ABk is the k^th animal in combination treatment group. AUCctl is the model-predicted AUC for the control group and was treated as a constant with no variability. The standard error of the synergy score was calculated as the square root of the sum of squared standard errors across groups A, B, and AB. The degrees of freedom were estimated using the Welch-Satterthwaite equation. P values were calculated by dividing the synergy score by its standard error and tested against a t-distribution (two-tailed) with the above-calculated degrees of freedom.
The effect was classified into four different categories. It was considered synergistic if the synergy score was less than 0 and additive if the synergy score wasn't statistically different from 0. […] Interval analysis, if requested, involved a specified treatment group and time interval compared with another treatment group and time interval. For a given group, time interval, and animal, the tumor growth rate per day was estimated by

[1] = test system: PHTX-249 Pa s.c. xenograft; assay: 5F9 vcMMAE and gemcitabine in PHTX-249 Pa s.c. xenografts (Study CPGC-13-EF08); assay type: in vivo, CB-17 SCID mice
Protocol: 264.4 ul stock Gemcitabine into 3135.6 ul NS.
(§1) Day D0 was the first day of treatment.
(§2) Tumor volume was calculated using the formula: […]
(§3) A negative dAUC is interpreted as an increase in AUC relative to the reference. It is important to evaluate not only the P value, but also the dAUC. Comparisons with significant P values, but small dAUC values, may not be of interest.

[2] = test system: PHTX-17c primary human mCRC tumor xenograft; assay: 5F9 vcMMAE single agent efficacy in PHTX-17c; assay type: in vivo, SCID mice
293 GCC#2 tumors = assay: Efficacy study with auristatin conjugates in 293 GCC#2 tumors, q7d×4; assay type: in vivo, SCID mice; conditions: for T/C: treatment/control
Protocol: 293 GCC#2 tumor-bearing SCID mice were treated with 5F9 conjugates with vc MMAE, vcMMAF or mcMMAF at three doses in comparison with 209 conjugates of these toxins or with free toxins or vehicle control. Doses were administered iv on a q7d×4 schedule. Tumors were harvested at days 3, 7, 10, 13 and 17. […] Table 18 provides a summary of the results (TGI=tumor growth inhibition, T/C=treatment/control, TGD=tumor growth delay, CR/PR=complete response/partial response; p value=measure to judge statistical significance, NS=not significant).

[3] = test system: PHTX-215 Pa primary human pancreatic tumor xenograft; assay: Single-agent 5F9 vcMMAE in PHTX-215 Pa pancreatic xenograft; assay type: in vivo, mice
Excerpt: (§4) The purpose of this study was to evaluate in vivo anti-tumor activity induced by combined administration of the 5F9 vcMMAE immunoconjugate (sometimes referred to herein as “MLN0264”) and gemcitabine in mouse xenograft primary human tumor explants (PHTX models of pancreatic cancer. These models included tumor tissue from patients with wild-type and mutant KRAS. Five pancreatic PHTX were generated by Champions Oncology (Hackensack, N.J.) using their CTG platform. 2 PHTX models were developed in-house. GCC expression was evaluated in each of the 7 PHTX models using the automated IHC assay described above.
(§5) In vivo anti-tumor studies of single-agent 5F9 vcMMAE immunoconjugate was conducted in all seven of the pancreatic subcutanreous xenograft mouse models. Animals were administered vehicle, free MMAE at 0.135 mg/kg once weekly (QW), a non-GCC targeting ADC at 7.5 mg/kg QW, or 5F9 vcMMAE at 3.75 or 7.5 mg/kg QW. The results for single agent activity of the immunoconjugate in PHTX-215 Pa and PHTX-249 Pa models is shown in FIGS. 15A and 15B, respectively.

PHTX-21c s.c. xenograft [4] = assay: MLN0264 and CPT-11 in PHTX-21C s.c. xenografts (Study CPGC-11-EF04)
Protocol: as §6
Not greater than one day prior to dosing, all animals were weighed to the nearest gram and grouped. Dosing solutions were vortexed prior to each administration to ensure correct delivery of compound. Animals received approximately 0.1 ml doses administered I.V. using a 1 cc syringe, 27-30 gauge, ½-¾ inch in length.
(§12) Tumor volume measurements were obtained twice per week using Vernier calipers (0.01 mm). Tumor volume was calculated using the formula:
as §7
TGD was assessed by calculating T−C, where T=mean time (in days) for treatment group tumors to reach a predetermined size (e.g., 1,000 mm^3), and where C=mean time (in days) for the control group tumors to reach a predetermined size.
as §9, §10
For synergy analyses, the observed differences in the log tumor values were used to calculate AUC values for each animal. […] The AUC for the control, or vehicle, group was calculated using the predicted values from the pairwise models described above.

[5] = test system: PHTX-215 Pa s.c. xenograft; assay: 5F9 vcMMAE and gemcitabine in PHTX-215 Pa s.c. xenografts (Study CPGC-13-EF10); assay type: in vivo, CB-17 SCID mice; conditions: PHTX-215 Pa s.c. xenograft, CB-17 SCID mice, reference vehicle
Protocol: as §1, §2
Table 77A the annotation table for group symbols. […] A negative dAUC is interpreted as an increase in AUC relative to the reference. It is important to evaluate not only the P value, but also the dAUC. Comparisons with significant P values, but small dAUC values, may not be of interest.

[6] = test system: PHTX-11c primary human mCRC tumor xenograft; assay: 5F9 vcMMAE single agent efficacy in PHTX-11c; assay type: in vivo, SCID mice
[7] = test system: PHTX-249 Pa s.c. xenograft; assay: 5F9 vcMMAE and gemcitabine in PHTX-249 Pa s.c. xenografts (Study CPGC-13-EF05); assay type: in vivo, CB-17 SCID mice; conditions: group A: MLN0264 7.5 mg/kg QW; reference vehicle
Protocol: as §1, §2, §3

[8] = test system: PHTX-21c primary human mCRC tumor xenograft; assay: 5F9 vcMMAE single agent efficacy in PHTX-21c; assay type: in vivo, SCID mice; conditions: for anti-tumor activity maintained post-dosing: last dose on day 22
PHTX-09c s.c. xenograft = assay: 5F9 vcMMAE and CPT-11 in PHTX-09C s.c. xenografts (Study CPGC-11-EF07); conditions: for Days to 1000 mm^3 / Mean tumor volume ± S.E.M (mm3) / T/C / TGI: PHTX-09c
Protocol: as §6
Not greater than one day prior to dosing, all animals were weighed to the nearest gram and grouped. Dosing solutions were vortexed prior to each administration to ensure correct delivery of compound. Animals received approximately 0.1 ml doses administered I.V. using a 1 cc syringe, 25-30 gauge, ½-¾ inch in length. Animals were dosed based on an average body weight of 20 grams.
as §12, §7, §8, §9
The −2 log likelihood of the full model was compared to one without any treatment terms (reduced model) and the difference in the values was tested using a Chi-squared test. The degrees of freedom of the test were calculated as the difference between the degrees of freedom of the full model and that of the reduced model. The predicted differences in the log tumor values (Yijk−Yi0k, which can be interpreted as log10 (fold change from day 0)) were taken from the above models to calculate mean AUC values for each treatment group. A dAUC value was then calculated as:
as §11
where Ak and Bk are the k^th animal in the individual treatment groups and ABk is the k^th animal in combination treatment group. AUCctl is the model-predicted AUC for the control group and was treated as a constant with no variability. […] The standard error of the synergy score was calculated as the square root of the sum of squared standard errors across groups A, B, and AB. The degrees of freedom were estimated using the Welch-Satterthwaite equation. P values were calculated by dividing the synergy score by its standard error and tested against a t-distribution (two-tailed) with the above-calculated degrees of freedom.

PHTX-21c s.c. xenograft [9] = assay: MLN0264 and 5-Fluorouracil in PHTX-21C s.c. xenografts (Study CPGC-11-EF01); assay type: in vivo, CB-17 SCID mice; conditions: for dAUC: reference vehicle
Protocol: as §2

[10] = test system: PHTX-249 Pa primary human pancreatic tumor xenograft; assay: Single-agent 5F9 vcMMAE in PHTX-249 Pa pancreatic xenograft; assay type: in vivo, mice
Excerpt: as §4, §5

[11] = MLN0264 7.5 mg/kg QW i.v., W1-W3
[12] = group A: MLN0264 7.5 mg/kg QW, reference vehicle
[13] = PHTX-21c, ML0264 3.75 mg/kg i.v. QW

5F9 vcMMAE: 5F9 mAb conjugated to MMAE using a vc (Val-Cit) linker; average drug loading about 3.6
Days to 1000 mm^3 (PHTX-11c s.c. xenograft; [11]): 13.5 days | Mean tumor volume ± S.E.M (PHTX-11c s.c. xenograft; [11]): 1263.4 ± 115.8 mm3 | T/C (PHTX-11c s.c. xenograft; [11]): 0.62 | TGD (PHTX-11c s.c. xenograft; [11]): 4.7 days | TGI (PHTX-11c s.c. xenograft; [11]): 37.7% | single agent anti-tumor activity (PHTX-11c s.c. xenograft; PHTX-11c, 7.5 mg/kg): very low activity | dAUC (PHTX-11c s.c. xenograft; [12]): 22.6% | tumor regressions (animals) ([1]; PHTX-249 Pa (Studies CPGC-13-EF05/EF08), 5F9 vcMMAE 7.5 mg/kg, gemcitabine 15 mg/kg on days 1 and 3, alone or combined): no tumor regressions | dAUC [1, 12]: 28.9% | single agent sensitivity ([2]; 0.9375 mg/kg-10 mg/kg I.V. QW×3 weeks): Moderate sensitivity | T/C ([2]; dose 0.938-10 mg/kg, QW, T/C=volume of tumor/control): 0.46 | TGI (293 GCC#2 tumors; 75 μg/kg iv q7d×4): 54.5 | T/C (293 GCC#2 tumors; 75 μg/kg iv q7d×4): 0.45 | TGD (293 GCC#2 tumors; 75 μg/kg iv q7d×4, tumor growth delay): 4.4 | TGI (293 GCC#2 tumors; 150 μg/kg iv q7d×4): 83.5 | T/C (293 GCC#2 tumors; 150 μg/kg iv q7d×4): 0.17 | TGI (293 GCC#2 tumors; 300 μg/kg iv q7d×4): 96.9 | T/C (293 GCC#2 tumors; 300 μg/kg iv q7d×4): 0.03 | tumor regressions (animals) ([3]; PHTX-215 Pa (KRAS wt), 7.5 mg/kg QW): 3 out of 8 | tumor growth inhibition ([3]; PHTX-215 Pa, 7.5 mg/kg QW, by day 22): significantly great tumor growth inhibition (TGI) versus free MMAE | TGI, % ([3]; single agent, model PHTX-215, KRAS wild-type, QWx3, day 21): 79% | single agent anti-tumor activity (PHTX-21c s.c. xenograft [4]; PHTX-21c, 3.75 mg/kg): relatively low anti-tumor activity | Days to 1000 mm^3 (PHTX-21c s.c. xenograft [4]; [13]): >15 days | Mean tumor volume ± S.E.M (mm3) (PHTX-21c s.c. xenograft [4]; [13]): 869.1 ± 105.2 mm3 | T/C (PHTX-21c s.c. xenograft [4]; [13]): 0.64 | TGI (PHTX-21c s.c. xenograft [4]; [13]): 36.3% | dAUC (PHTX-21c s.c. xenograft [4]; Treated group A (ML0264 3.75 mg/kg) vs reference V (vehicle)): 25.1% | dAUC (percent decrease in treatment AUC relative to reference group V, vehicle) ([5]; group A: MLN0264 3.75 mg/kg IV QW): 36.3% | dAUC (percent decrease in treatment AUC relative to reference group V, vehicle) ([5]; group B: MLN0264 7.5 mg/kg IV QW): 75.1% | single agent sensitivity ([6]; 1.875-7.5 mg/kg I.V. QW×3 weeks): relatively resistant | T/C ([6]; dose 1.875-7.5 mg/kg, on BIW): 0.5 on | dAUC [7]: 26.4% | anti-tumor activity maintained post-dosing ([8]; 7.5 mg/kg): 7-8 weeks | anti-tumor activity maintained post-dosing ([8]; 10 mg/kg): > 15 weeks | single agent anti-tumor activity ([8]; 3.75-10 mg/kg I.V. QW×4): Moderate to strong in vivo anti-tumor activity | T/C ([8]; dose 3.75-10 mg/kg, QW, T/C=volume of tumor/control): 0.23 | single agent activity (PHTX-09c s.c. xenograft; PHTX-09c (FIGS. 8B and 8C)): strong | Days to 1000 mm^3 (PHTX-09c s.c. xenograft; ML0264 1.875 mg/kg i.v. QW ×3): >23 days | Mean tumor volume ± S.E.M (mm3) (PHTX-09c s.c. xenograft; ML0264 1.875 mg/kg i.v. QW ×3): 888.5 ± 126.2 mm3 | T/C (PHTX-09c s.c. xenograft; ML0264 1.875 mg/kg i.v. QW ×3): 0.82 | TGI (PHTX-09c s.c. xenograft; ML0264 1.875 mg/kg i.v. QW ×3): 18.1% | Days to 1000 mm^3 (PHTX-09c s.c. xenograft; ML0264 3.75 mg/kg i.v. QW ×3): >23 days | Mean tumor volume ± S.E.M (mm3) (PHTX-09c s.c. xenograft; ML0264 3.75 mg/kg i.v. QW ×3): 861.1 ± 155.9 mm3 | T/C (PHTX-09c s.c. xenograft; ML0264 3.75 mg/kg i.v. QW ×3): 0.79 | TGI (PHTX-09c s.c. xenograft; ML0264 3.75 mg/kg i.v. QW ×3): 20.6% | dAUC (PHTX-09c s.c. xenograft; Treated group A (ML0264 1.875 mg/kg) vs reference V (vehicle), percent decrease in AUC): 16.1% | dAUC (PHTX-09c s.c. xenograft; Treated group B (ML0264 3.75 mg/kg) vs reference V (vehicle)): 25.4% | single agent anti-tumor activity (PHTX-21c s.c. xenograft [9]; PHTX-21c, 3.75 mg/kg): relatively low anti-tumor activity | dAUC (PHTX-21c s.c. xenograft [9]; group C: MLN0264 3.75 mg/kg QW): 38.5% | dAUC (PHTX-21c s.c. xenograft [9]; group D: MLN0264 7.5 mg/kg QW): 74.0% | tumor growth inhibition ([10]; PHTX-249 Pa, by day 21): significant TGI versus vehicle or free MMAE | TGI, % ([10]; model PHTX-249, KRAS Mut G12D, QWx3, day 21): 47%
